Data on 1 molecule can be found in patent publication US20130116336A1, “TREATMENT OF ATAXIA TELANGIECTASIA” (priority 2010, published 2013).

One data set can be described thus: in vivo. The note with it: rat; for NOAEL: female. The procedure:
(§1) The particular dosage appropriate for a specific patient is determined by dose titration. […] There is less than dose-proportionality since for an increase in doses of 2.4:6:10:20 there is only an increase in AUCs of 1.5:2.8:4.0:6.7. This lack of dose-proportionality may be due to decreased absorption since there is no change in t1/2 over dose range. Alpha-tocotrienol quinone tested in rats was safe when given acutely up to 2000 mg/kg.
The starting dose can be estimated based on the United States Food and Drug Administration guidelines titled “Estimating the Maximum Safe Starting Dose in Initial Clinical Trials for Therapeutics in Adult Healthy Volunteers” (July 2005) as well as the International Conference on Harmonisation of Technical Requirements for Registration of Pharmaceuticals for Human Use (ICH) guidelines titled “Guidance on Non-clinical Safety Studies for the Conduct of Human Clinical Trials and Marketing Authorization for Pharmaceuticals” (July 2008). Per ICH guidelines, predicted exposures from the starting dose should not exceed 1/50th the NOAEL (No-Adverse-Observed-Effect-Level) in the more sensitive species on a mg/m^2 basis. Following a single oral dose of alpha-tocotrienol quinone, the NOAEL was established to be 500 mg/kg for the female rat, i.e. 3,000 mg/m2. This dosage would be equivalent to 81 mg/kg in an adult human. 1/50th of 81 mg/kg is 1.6 mg/kg, i.e. 110 mg for a 70 kg adult, or 16 mg for a 10 kg child. This dose can be administered once, twice, or three times daily.

The nature of data set [1]: Animal study of alpha-tocotrienol quinone administration: pharmacokinetics in rats. The note with it: rat, in vivo, 10 mg/kg. The procedure:
as §1

Data set [2] has as its system Ataxia-Telangiectasia fibroblast cells AG04405 (AT05). The experiment in a line: Ataxia-Telangiectasia cell line assay: rescue of BSO-stressed A-T fibroblasts, Calcein AM viability. Format: cell-based. The note with it: A-T fibroblasts AT05 stressed with 1 mM BSO for 48 h, Calcein AM fluorescence, tested three times, read-out: ED50, protection of ataxia telangiectasia cells. The procedure:
Alpha-Tocotrienol quinone, was tested for its ability to rescue Ataxia-Telangiectasia fibroblast cells obtained from the Coriell Cell Repositories (Camden, N.J.; repository number AG04405 (AT05), when the cells were stressed by addition of L-buthionine-(S,R)-sulfoximine (BSO), as described in Jauslin et al., Hum. Mol. Genet. 11(24):3055 (2002), Jauslin et al., FASEB J. 17:1972-4 (2003), and International Patent Application WO 2004/003565.
MEM (a medium enriched in amino acids and vitamins, catalog no. 1-31F24-I) and Medium 199 (M199, catalog no. 1-21F22-I) with Earle's Balanced Salts, without phenol red, were purchased from Bioconcept. Fetal Calf Serum was obtained from PAA Laboratories. Basic fibroblast growth factor and epidermal growth factor were purchased from PeproTech. Penicillin-streptomycin-glutamine mix, L-buthionine (S,R)-sulfoximine, and insulin from bovine pancreas were purchased from Sigma. Calcein AM was purchased from Molecular Probes. […]
100 μL of PBS containing 1.2 μM Calcein AM were then added to each well. […] After that time the PBS was discarded, the plate gently tapped on a paper towel and fluorescence (excitation/emission wavelengths of 485 nm and 525 nm, respectively) was read on a Gemini fluorescence reader. […]

Data set [3] can be described thus: Animal study of alpha-tocotrienol quinone administration: pharmacokinetics in fasted dogs. The note with it: dog, in vivo, po, 10 mg/kg. The method, then:
as §1

For `CC(C)=CCC/C(C)=C/CC/C(C)=C/CCC(C)(O)CCC1=C(C)C(=O)C(C)=C(C)C1=O` (stereo not drawn) [Alpha-tocotrienol quinone], in the data set “in vivo”, the NOAEL was determined as 81 mg/kg and the “dose at which safe when given acutely” value is reported as “up to 2000 mg/kg”. For the same molecule, in “in vivo” (po), the no observed adverse effect level (NOAEL) amounted to 500 mg/kg and the “NOAEL on body surface basis” value is given as 3,000 mg/m2. In addition, in data set [1], the peak level (Cmax) was 931 ng/mL, the Tmax came to 3.5 h, the bioavailability was approximately 90% and the half-life is 3.5 h. Also, in data set [2], the EC50 is 28 nM. Also, in data set [3], the Cmax amounted to 442 ng/mL, the time of peak concentration (Tmax) was 2.8 h, the bioavailability is approximately 16% and the half-life is 7.6 h.
